Values of other authors in PubChem BioAssay AID1259409 (Chemical Carcinogenesis Research Information System (CCRIS), 2018).

System: rodent chemically induced tumor inhibition, incidence and multiplicity
Assay: CCRIS tumor inhibitor studies
Details: for outcome: Carcinogen: SUBCUTANEOUS, Dose [Inhibitor]: 1,2-DIMETHYLHYDRAZINE, 540-73-8, Route [Inhibitor]: 0, 20 UG/ML IN DRINKING WATER 14 HR/D AT NIGHT TIME FOR 6 MO (STUDY DURATION: 6 MO), Dose [Carcinogen]: NONE

Compound: COc1ccc2[nH]cc(CCNC(C)=O)c2c1
- tumour outcome (control, treated, inhibition, significance) (Carcinogen: N,N-DIETHYLNITROSAMINE [55-18-5], Dose [Inhibitor]: 400 PPM IN DIET, BEGINNING 1 WK AFTER FINAL CARCINOGEN DOSE, FOR STUDY DURATION (STUDY DURATION: 24 WK), Route [Inhibitor]: ORAL, Species: RAT, Strain/Sex: F344/MALE, Target Tissue: Type of Lesion: LIVER: HEPATOCELLULAR ADENOMA AND CARCINOMA, Dose [Carcinogen]: 100 MG/KG BW, 1/WK FOR 3 WK, Promoter: PHENOBARBITAL [50-06-6]): 24/24 (100%), 15/23 (65%), 35%, p<0.002
- tumour outcome (control, treated, inhibition, significance) (Carcinogen: N,N-DIETHYLNITROSAMINE [55-18-5], Dose [Inhibitor]: 400 PPM IN DIET, BEGINNING 1 WK AFTER FINAL CARCINOGEN DOSE, FOR STUDY DURATION (STUDY DURATION: 24 WK), Route [Inhibitor]: ORAL, Species: RAT, Strain/Sex: F344/MALE, Target Tissue: Type of Lesion: LIVER: HEPATOCELLULAR ADENOMA, Dose [Carcinogen]: 100 MG/KG BW, 1/WK FOR 3 WK, Promoter: PHENOBARBITAL [50-06-6]): 24/24 (100%), 9/23 (39%), 61%, p<0.001
- tumour outcome (control, treated, inhibition, significance) (Carcinogen: N-METHYL-N-NITROSOUREA [684-93-5], Dose [Inhibitor]: 0, 20 MG/L IN DRINKING WATER 15 HR/D FOR 3 D BEGINNING 2 D PRIOR TO CARCINOGEN DOSE (STUDY DURATION: LIFETIME), Route [Inhibitor]: ORAL, Species: RAT, Strain/Sex: LIO/FEMALE, Target Tissue: Type of Lesion: TUMORS, Dose [Carcinogen]: 50 MG/KG BW ONCE (STUDY DURATION: LIFETIME), Promoter: NONE): 12/24 (50%), 8/23 (34.8%), 30.4%, not significant
- tumour outcome (control, treated, inhibition, significance) (Carcinogen: N-METHYL-N-NITROSOUREA [684-93-5], Dose [Inhibitor]: 8.2 MG IN 20 µL OIL CONCENTRATE BY PIPET AT THE BASE OF THE TONGUE 1X/D FOR 20 WK BEGINNING 11 D POST FIRST CARCINOGEN D, Route [Inhibitor]: ORAL, Species: RAT, Strain/Sex: SPRAGUE-DAWLEY/FEMALE, Target Tissue: Type of Lesion: MAMMARY GLAND: TUMOR, Dose [Carcinogen]: 50 MG/KG BW 1X/WK FOR 2 WK (STUDY DURATION: 22 WK), Promoter: NONE): 88%, 80%, 9%, not significant
- tumour outcome (control, treated, inhibition, significance) (Carcinogen: N-METHYL-N-NITROSOUREA [684-93-5], Dose [Inhibitor]: 20 UG/ML IN DRINKING WATER 17 HR/D FOR 20 WK BEGINNING 12 D POST FIRST CARCINOGEN DOSE (STUDY DURATION: 22 WK), Route [Inhibitor]: ORAL, Species: RAT, Strain/Sex: SPRAGUE-DAWLEY/FEMALE, Target Tissue: Type of Lesion: MAMMARY GLAND: TUMOR, Dose [Carcinogen]: 50 MG/KG BW 1X/WK FOR 2 WK (STUDY DURATION: 22 WK), Promoter: NONE): 88%, 61%, 31%, not significant
- tumour outcome (control, treated, inhibition, significance) (Carcinogen: N-METHYL-N-NITROSOUREA [684-93-5], Dose [Inhibitor]: 20 UG/ML IN DRINKING WATER, 17 HR/D BEGINNING 5 D BEFORE FIRST CARCINOGEN DOSE FOR 27 WK (STUDY DURATION: 27 WK), Route [Inhibitor]: ORAL, Species: RAT, Strain/Sex: SPRAGUE-DAWLEY/FEMALE, Target Tissue: Type of Lesion: MAMMARY GLAND: TUMOR, Dose [Carcinogen]: 50 MG/KG BW TWICE ON POSTNATAL DAYS 51 AND 58): 17/18 (94%), 14/19 (73.7%), 22%, not significant
- tumour outcome (control, treated, inhibition, significance) (Carcinogen: N-METHYL-N-NITROSOUREA, 684-93-5, Dose [Inhibitor]: 0, 4 UG/ML IN DRINKING WATER 17 HR/D STARTING BEFORE CARCINOGEN TREATMENT FOR THE DURATION OF THE STUDY (STUDY DURATION:, Route [Inhibitor]: SUBCUTANEOUSLY, Species: RAT, Strain/Sex: SPRAGUE-DAWLEY/FEMALE, Target Tissue: Type of Lesion: MAMMARY GLAND: TUMOR, Dose [Carcinogen]: 50 MG/KG BW 2/WK FOR 1 WK BW 43-54 POSTNATAL DAYS): 80%, 65%, 19%, not significant
- tumour outcome (control, treated, inhibition, significance) (Carcinogen: N-METHYL-N-NITROSOUREA, 684-93-5, Dose [Inhibitor]: 0, 20 UG/ML IN DRINKING WATER FOR 17 HR/D FOR THE DURATION OF STUDY (STUDY DURATION: 180 D), Route [Inhibitor]: ORAL, Species: RAT, Strain/Sex: SPRAGUE-DAWLEY/FEMALE, Target Tissue: Type of Lesion: MAMMARY GLAND: TUMOR, Dose [Carcinogen]: 50 MG/G BW ONCE/WK FOR 2 WK BEGINNING 12 D POST INHIBITOR TREATMENT, Promoter: NONE): 16/20 (80%), 9/16 (56.3%), 30%, not significant
- tumour outcome (control, treated, inhibition, significance) (Carcinogen: NONE USED, Dose [Inhibitor]: 0, 25 UG/MOUSE/D IN DRINKING WATER FROM DAYS 21-45 OF AGE THEN 50 UG/D FOR DURATION OF STUDY (STUDY DURATION: 12 MO), Route [Inhibitor]: ORAL, Species: MOUSE, Strain/Sex: C3H/JAX/FEMALE, Target Tissue: Type of Lesion: MAMMARY GLAND: ADENOCARCINOMA): 10/16 (63%), 9/39 (23%), 63%, p<0.02
- outcome (Species: RAT, Strain/Sex: LIO/FEMALE, Target Tissue: Type of Lesion: 7/21 (33%), 4/21 (19%), 42%, NOT SIGNIFICANT): 0.4, 0.2, 50%, not significant
- outcome (Species: RAT, Strain/Sex: LIO/FEMALE, Target Tissue: Type of Lesion: 12/21 (57%), 3/21 (4%), 93%, P<0.01): 0.8, 0.1, 88%, p<0.01
- outcome (Species: RAT, Strain/Sex: LIO/FEMALE, Target Tissue: Type of Lesion: 20/21 (95%), 12/21 (57%), 40%, P<0.01): 2.8, 1.2, 57%, p<0.01
